Test results as given in paper PMC6389498, “Control of Bacterial Virulence through the Peptide Signature of the Habitat” (Cell Reports, 2019).
Converted amounts (≈) assume the structure as drawn. Where two headings read alike, the source gives them in different places. Residues, ends and D or L forms follow the SMILES beside them.

How the values were obtained:
[1] = test system: PrfA-dependent expression (PrfA-regulated hly promoter, luxABCDE reporter); assay: Phly-lux reporter of PrfA-dependent gene expression, wild-type P14; assay type: cell-based, Listeria monocytogenes; details: for PrfA downregulation (repression of Phly-lux expression): wild-type P14 in regular CDM (0.8 mM Cys), 1 mM peptide vs no-peptide control, 37°C, maximum normalized luminescence, means of three triplicate experiments
Protocol: (§1) Listeria were routinely grown in porcine BHI (BD-Difco) and Escherichia coli in Luria-Bertani (LB) media, with 1% agar for solid cultures. For adsorbent-treated BHI agar, 1% (w/v) Amberlite XAD4 resin (Sigma-Aldrich) or 0.5% (w/v) activated charcoal powder (Merck) was added to the medium prior to autoclaving. For fluid Amberlite XAD4-treated BHI cultures (BHI-Amb), the resin was aseptically removed after autoclaving to avoid interference with optical density (OD) readings. Chemically defined CDM is a modification of the improved minimal medium (IMM) of [Phan-Thanh and Gormon (1997)], with the following composition: 6.56 g/L […], 30.96 g/L NaHPO4 7H2O, 0.41 g/L MgSO4, 88 mg/L ferric citrate, 0.1 g/L each of the (L-) amino acids leucine, isoleucine, valine, methionine, arginine, cysteine, histidine and tryptophan, 0.6 g/L L-glutamine, 2.5 mg/L adenine, 0.5 mg/L biotin, 5 mg/L riboflavin, 1 mg/L each of thiamine, pyridoxal, para-aminobenzoic acid, calcium panthothenate and nicotinamide, 5 μg/L thioctic acid and 4.5 g/L glucose. CDM was used freshly prepared from filter-sterilized stock solutions stored at 4°C (except cysteine, glutamine, biotin and ferric citrate solutions, kept at –20°C; and phosphates, MgSO4 and glucose, at room temperature). Antibiotic supplements (μg/mL) were as follows (lower values for Listeria, others for E. coli or both): erythromycin 5 or 250, chloramphenicol 7.5 or 20, spectinomycin 100, carbenicillin 100. All incubations were carried out at 37°C, with 180 rpm orbital shaking for fluid cultures, unless stated otherwise. GSH was kept in reduced state with 2 mM Tris[2-carboxyethyl]phosphine hydrochloride (TCEP) in the stock solution. Chemicals and oligonucleotides were from Sigma-Aldrich unless otherwise indicated.
(§2) PrfA-dependent gene expression was quantitatively analyzed throughout the L. monocytogenes growth curve using a chromosomally integrated luxABCDE operon under the control of the PrfA-regulated hly promoter ([Bron et al., 2006]). Overnight bacterial cultures were washed, resuspended in PBS and used to inoculate fresh medium to an initial OD at 600 nm (OD600) ≈0.02-0.05. Triplicate 200-μl aliquots were transferred to opaque 96-well plates with clear bottom (ThermoScientific) and OD600 and luminescence readings taken every 30 min during incubation in an automated microplate reader (FLUOstar Omega, BMG Labtech). Bioluminescence values were normalized to growth at each time point. RT-qPCR transcription analysis was performed on total RNA samples extracted from mid-exponential L. monocytogenes cultures (OD600 ≈0.2-0.3 for BHI media) using RNeasy mini kit (QIAGEN) as previously described ([Deshayes et al., 2012]). The number of transcripts was calculated by interpolation of threshold cycle (CT) values of cDNA amplifications in a standard regression curve generated from samples of known DNA concentration. Expession data were normalized by dividing the number of transcripts of the test gene by the geometric mean of the number of transcripts of the reference housekeeping genes rpoB and ldh ([Deshayes et al., 2012]). See Table S3 for oligonucleotides used.

[2] = test system: PrfA-dependent expression (PrfA-regulated hly promoter, luxABCDE reporter); assay: Phly-lux reporter of PrfA-dependent gene expression, opp (oppF::Tn) or ΔgshF mutant; assay type: cell-based, Listeria monocytogenes; details: for Rescue of PrfA phenotype of opp mutant: opp mutant in BHI-Amb, GSH 1 mM, L-cysteine at the CDM concentration
Protocol: as §1
as §2, with “RT-qPCR transcription analysis was performed on total RNA samples extracted from mid-exponential L. monocytogenes cultures (OD600 ≈0.2-0.3 for BHI media) using RNeasy mini kit (QIAGEN) as previously described ([Deshayes et al., 2012]).” left out, “Expession data were normalized by dividing the number of transcripts of the test gene by the geometric mean of the number of transcripts of the reference housekeeping genes rpoB and ldh ([Deshayes et al., 2012]). See Table S3 for oligonucleotides used.” left out

L. monocytogenes P14 [3] = assay type: cell-based, Listeria monocytogenes
PrfA [4] = biological target: T1, PrfA (Listeria monocytogenes serovar 1/2a, UniProt P22262); details: read-out: Kd for PrfA; ref Reniere et al., 2015; cited from earlier work
PrfA [5] = biological target: T1, PrfA; assay: biochemical; assay type: binding; parameters: His tag (inferred from pET28a vector and nickel-column purification); made in house; host or cells: E. coli BL21; details: for Binding to PrfA detected by ITC: ITC with purified PrfA, free L-Leu at 1 mM
L. monocytogenes P14 [6] = assay: Fosfomycin MIC; assay type: cell-based; details: Listeria monocytogenes
[7] = biological target: T2, PrfA^WT binding to the PplcA/hly PrfA box (Listeria monocytogenes serovar 1/2a, UniProt P22262); assay: Biolayer interferometry of PrfA-DNA binding, PrfAWT; assay type: biochemical; details: BLI, PrfA^WT-ligand mixes at 1:100 molar ratio, 50 mM Tris-Cl pH 7.5, 300 mM NaCl, 0.05 Tween 20; at least two experiments
T2 construct: His tag (inferred from pET28a vector and nickel-column purification); made in house; host or cells: E. coli BL21
Protocol: Bacterial pellets of IPTG-induced cultures of E. coli BL21(pET28aprfA^WT) ([Deshayes et al., 2012]; Table S2) were resuspended in lysis buffer (50 mM Tris pH 7.5, 300 mM NaCl, 20 mM imidazole) and lysed with an EmulsiFlex homogenizer. After affinity chromatography on a HiTrap HP nickel column in an AKTA system (GE Healthcare), PrfA-containing fractions were pooled together, loaded on a HiTrap Heparin HP column and then on a Superdex 75 Gel Filtration column to remove nucleic acid and protein contaminants. The buffer used for the gel filtration and storage was 50 mM Tris pH 7.5, 300 mM NaCl. Fluorescence-based thermal shift assays were performed in a real-time PCR instrument (Bio-Rad) using 25 μL triplicate samples containing 10 μΜ recombinant PrfA, 5 × SyprOrange (Invitrogen) and 1 mM synthetic peptide. Isothermal Titration Calorimetry (ITC) experiments were performed in a GE MicroCal iTC200 system (GE Healthcare). PrfA was changed to 50 mM Tris pH 7.5, 500 mM NaCl buffer and 100 μΜ of PrfA protein injected into the cell. […] Data were analyzed with the inbuilt software of the ITC apparatus using a one-site model. The specific DNA-binding activity of PrfA was measured by biolayer interferometry (BLI) with a FortéBio Octet^RED 96 apparatus using a biotinylated double-stranded oligonucleotide containing the PplcA/hly PrfA box (Table S3). […]

PrfA [8] = biological target: T1, PrfA; assay type: binding; parameters: His tag (inferred from pET28a vector and nickel-column purification); made in house; host or cells: E. coli BL21

T1 sequence (P22262 whole entry): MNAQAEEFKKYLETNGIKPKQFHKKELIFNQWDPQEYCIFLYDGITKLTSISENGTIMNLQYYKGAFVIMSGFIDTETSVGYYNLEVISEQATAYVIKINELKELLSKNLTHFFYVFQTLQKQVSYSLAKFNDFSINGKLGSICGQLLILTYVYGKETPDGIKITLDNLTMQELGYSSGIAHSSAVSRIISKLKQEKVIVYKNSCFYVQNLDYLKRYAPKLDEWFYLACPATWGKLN
T2 sequence (P22262 whole entry): as above

N[C@@H](CS)C(=O)O [Cys, L-cysteine]
Amount required to completely cancel LL/LLL-mediated repression ([1]; wild-type in CDM with limiting Cys (0.1 mM), against fixed 0.25 mM Leu peptide): 6.4 mM
Rescue of PrfA phenotype of opp mutant [2]: Rescue of opp mutant
Minimum concentration for eugonic growth (L. monocytogenes P14 [3]; CDM, wild-type and opp bacteria): ≈ 0.2 mM
Concentrations that inhibit P14 growth (L. monocytogenes P14 [3]; Cys-deplete CDM supplemented with increasing free Cys): ≥ 12.8 mM

N[C@@H](CCC(=O)N[C@@H](CS)C(=O)NCC(=O)O)C(=O)O [GSH, γ-L-Glutamyl-L-cysteinylglycine]
Rescue of PrfA phenotype of opp mutant [2]: fully restored the parental PrfA^+ phenotype
Reversal of PrfA– phenotype of ΔgshF mutant ([2]; ΔgshF in BHI-Amb, 1 mM exogenous GSH (even at 8 mM, data not shown)): did not revert the PrfA^– phenotype
Kd (PrfA [4]): ~4 mM
Binding to PrfA detected by ITC (PrfA [5]): undetectable by ITC

CC(C)C[C@H](NC(=O)[C@@H](N)CC(C)C)C(=O)O [LL, L-leucylleucine]
Kd (PrfA [5]): ~25 µM

CC(C)C[C@H](NC(=O)[C@H](CC(C)C)NC(=O)[C@@H](N)CC(C)C)C(=O)O [LLL] (H-Leu-Leu-Leu-OH)
Kd (PrfA [5]): ~25 µM

C[C@@H]1O[C@@H]1P(=O)(O)O [fosfomycin]
MIC (L. monocytogenes P14 [6]): 12 to 32 µg/mL (≈ 86.9 to 232 µM)

CC(C)C[C@H](N)C(=O)O [free Leu, leucine]
PrfA downregulation (repression of Phly-lux expression) [1]: not inhibitory
Inhibition of PrfA-DNA binding [7]: not
Binding to PrfA detected by ITC (PrfA [5]): no binding was detected

ASSLLLVG [listerial derived octapeptide, putative peptide pheromone pPplA]
PrfA downregulation (repression of Phly-lux expression) [1]: 88%
Change in melting temperature (Tm) of purified PrfA (PrfA [8]): significant drop in the Tm

KLLLLK [known listerial Opp substrate]
PrfA downregulation (repression of Phly-lux expression) [1]: 96%

RGDC [Cys-containing synthetic tetrapeptide transported by Opp]
Concentration that completely cancelled LL/LLL-mediated repression ([1]; wild-type in CDM with limiting Cys (0.1 mM), against fixed 0.25 mM LL or LLL): 80 µM
Growth and PrfA-dependent expression with peptide as Cys source ([1]; wild-type, CDM without Cys supplemented with 0.32 mM RGDC peptide): promoted growth and PrfA-dependent expression
Growth and PrfA-dependent expression with peptide as Cys source ([2]; opp mutant, CDM without Cys supplemented with 0.32 mM RGDC peptide): not

RKDVY [known listerial Opp substrate]
PrfA downregulation (repression of Phly-lux expression) [1]: no effect

SQNPYPIV [known listerial Opp substrate]
PrfA downregulation (repression of Phly-lux expression) [1]: 59%
